Each structure is given as a SMILES string. pEC50: −log10 of the molar value. A value given as a limit tells only on which side of the number the result lay.

Consider 24 molecules from patent publication US12329741B2, “HBV inhibitor and its use” (priority 2019, dated 2025).

One series relates to hepatitis B virus (HBV). The series is described as follows: Anti-hepatitis B virus activity: HBV DNA in supernatant of HepG2.2.15 cells by qPCR. Format: cell-based. The note with it: 192 h, supernatant collected on day 8. An excerpt:
(§1) In this experiment, real-time fluorescent quantitative PCR (qPCR) method was used to detect the content of HBV DNA in the supernatant of HepG2.2.15 cells to determine the anti-hepatitis B virus activity of the compound in HepG2.2.15 cells, and to detect cell viability impact of the test compound against HepG2.2.15 by Cell-titer Blue method. In the experiment, entecavir (ETV) was used as a reference compound to monitor the quality of the experiment.
On day 1, the cells were planted into a 96-well plate, the compound was added to treat the cells on day 2, a new culture medium containing the compound was replaced on day 5, and the supernatant was collected on day 8 to extract DNA. Quantitative PCR was used to detect the content of HBV DNA. Both the test compound and the control compound were diluted in a series of 3 times with 8 concentration points, and 2 replicate wells were measured in parallel. The final concentration of DMSO in the culture medium is 0.5%.
The calculation formula of the inhibition percentage is as follows: % inh.=(1-HBV copy number of sample/HBV copy number of 0.5% DMSO control)×100
EC50 was analyzed by Graphpad Prism software (four parameter logistic equations).
(In qPCR the cycle at which signal appears reflects the starting amount.)

Series [1] in a line: Cytotoxicity test (Cell-titer Blue method) in HepG2.2.15 cells. The note with it: human, six days after treatment, highest concentration tested 100 μM, read-out: HepG2.2.15 cell viability CC50. The class given is cell-based.
Source text: as §1
The compound concentration, plate layout, and compound treatment process are consistent with the antiviral experiments. In six days after the cells were treated with the compound, the cell viability was measured with Cell-titer Blue.
Analyze the data and calculate relative cell viability: Use the following formula to calculate the percentage of cell viability: % Cell viability=(sample fluorescence reading-fluorescence reading of culture medium control)/(fluorescence reading of DMSO control-fluorescence reading of the culture medium control)×100.
Finally, GraphPad Prism software was used to calculate the CC50 value of the compound.

Series [2] in a line: Pharmacokinetics (PK) experiment, intragastric administration in rats. The class given is in vivo, Male SD rats. The note with it: for absorption after oral administration / blood exposure: oral administration. As for the experimental part: Male SD rats weighing 215-343 grams were fasted overnight before the test. The test compound was completely dissolved in 5% of the total volume of DMSO and then diluted with 30% Captisol to 2 mg/mL, and then it was administered by gavage at dosage of 20 mg/kg. In 15 minutes, 30 minutes, 1, 2, 4, 6, 8 and 24 hours after the administration, blood was taken from the end of the tails of rats at about 0.3 ml at each time point. The blood sample was placed in a centrifuge tube containing K2-EDTA, and centrifuged (@3500 rpm, 10 minutes, 4° C.). Take the plasma and store it in an ultra-low temperature refrigerator at −80° C. 50 μL of plasma sample was mixed with 135 μl of acetonitrile (including the internal standard IS), and then vortexed for 30 s, centrifuged at 15000 rpm at 4° C. for 10 min, and 10 μl of supernatant was taken as sample and injected into LC-MS/MS for analysis.

Setting [3] is: male, SD, rat, po, intragastric administration 20 mg/kg, plasma.

The term pEC50 denotes −log10 of the EC50, conventionally taken in molar units. High values mean a low EC50, low ones a high EC50. What is called CC50 is the concentration at which the toxic effect on the cells reaches its halfway point. In the series with hepatitis B virus (HBV), `C#CCNC(=O)C(=O)c1cc(C(=O)Nc2ccc(F)c(Cl)c2)c(C)o1` [Compound 2, 2-Methyl-3-amide-N-(3-chloro-4-fluorophenyl)-5-(2-propargylamino-oxalyl)-furan] showed a pEC50 of 4.30 to 5.30. Also, the CC50 at 6 days in series [1] is 61 µM. For the same molecule, in series [2], the “absorption after oral administration” value is listed as “well absorbed” and the blood exposure entry is recorded as “relatively high”.
In turn, `Cc1oc(C(=O)C(=O)NCc2nccn2C)cc1C(=O)Nc1ccc(F)c(Cl)c1` [Compound 8] showed a pEC50 in the series on hepatitis B virus (HBV) of 4.30 to 5.30. In addition, in series [1], the CC50 at 6 days was > 100 µM. Further, in series [2], the “absorption after oral administration” value is on record as “well absorbed” and the blood exposure entry is “relatively high”.
With `Cc1oc(C(=O)C(=O)NCc2cn(C3CC3)nn2)cc1C(=O)Nc1ccc(F)c(Cl)c1` [Compound 11, 2-Methyl-3-amide-N-(3-chloro-4-fluorophenyl)-5-(2-(1-cyclopropyl-1H-[1,2,3]triazole-4-ylmethylamino)-oxalyl)-furan], in series [2], the “absorption after oral administration” value is recorded as “well absorbed” and the blood exposure entry is listed as “relatively high”.
Usually AUC(0-inf) stands for total exposure, with the tail of the curve extrapolated. A lower AUC(0-inf) goes with less exposure. By Cmax is commonly meant the highest concentration seen after dosing. The Tmax is the time from dosing to the highest level. What is called half-life is the time in which the quantity being followed falls by half. Read a high half-life as slow loss. For the molecule `Cc1sc(C(=O)C(=O)NC(C)(C)C)c(C)c1C(=O)Nc1ccc(F)c(Cl)c1` [Compound 36, 2,4-Dimethyl-3-amide-N-(3-chloro-4-fluorophenyl)-5-(2-tert-butylamino-oxalyl)-thiophene], the pEC50 in the series with hepatitis B virus (HBV) is ≥ 7.30. Besides, the CC50 at 6 days in series [1] was > 100 µM. Besides, in series [2] (setting [3]), the AUC(0-inf) came to 32600 ng·h/mL, the Cmax was 3730 ng/mL, the Tmax amounted to 0.5 h and the half-life was 12.2 h. Also, the AUC(0-t) in series [2] (male, SD, rat, po, intragastric administration 20 mg/kg, plasma, read-out: AUC0-24) was 25800 ng·h/mL. Moreover, in series [2], the “absorption after oral administration” value is listed as “well absorbed” and the blood exposure entry was “relatively high”.
As for `CC(C)(C)NC(=O)C(=O)c1cc(C(=O)Nc2ccc(F)cc2)co1` [Compound 42, 3-Amide-N-(4-fluorophenyl)-5-(2-tert-butylamino-oxalyl)-furan], in the series on hepatitis B virus (HBV), the pEC50 is 4.30 to 5.30. In series [1], the CC50 at 6 days is > 100 µM. In addition, in series [2], the “absorption after oral administration” value is given as “well absorbed” and the blood exposure entry is recorded as “relatively high”.
As for `Cc1c(C(=O)C(=O)NC2CCCC2)c(C)n(C)c1C(=O)Nc1ccc2occc2c1` [Compound 58, 1,3,5-Trimethyl-2-amide-N-(benzofuran-5-yl)-4-(2-cyclopentylamino-oxalyl)-pyrrole], in the series with hepatitis B virus (HBV), the pEC50 is ≥ 7.30. In addition, in series [1], the CC50 at 6 days is > 100 µM.
`Cc1c(C(=O)C(=O)Nc2nccs2)c(C)n(C)c1C(=O)Nc1ccc2occc2c1` [Compound 59, 1,3,5-Trimethyl-2-amide-N-(benzofuran-5-yl)-4-(2-(thiazol-2-amino)-oxalyl)-pyrrole]: in the series with hepatitis B virus (HBV), the pEC50 was ≥ 7.30. Further, the CC50 at 6 days in series [1] is > 100 µM.
On to `CNC(=O)C1(NC(=O)C(=O)c2c(C)c(C(=O)Nc3ccc4occc4c3)n(C)c2C)CC(F)(F)C1` [Compound 60, 1,3,5-Trimethyl-2-amide-N-(benzofuran-5-yl)-4-(2-(N-methyl-1-carboxamide-3,3-difluorocyclobutane-1-amine)-oxalyl)-pyrrole], for which the pEC50 in the series with hepatitis B virus (HBV) is ≥ 7.30. The CC50 at 6 days in series [1] was > 100 µM.
In the same order, the values of `COCC1(NC(=O)C(=O)c2c(C)c(C(=O)Nc3ccc4occc4c3)n(C)c2C)COC1` [Compound 62, 1,3,5-trimethyl-2-amide-N-(benzofuran-5-yl)-4-(2-(3-methoxymethyl-3-oxetan)(amino)-oxalyl)-pyrrole] are ≥ 7.30 and > 100 µM.
In the same order, the values of `C#CCNC(=O)C(=O)c1c(C)c(C(=O)Nc2ccc3sccc3c2)n(C)c1C` [Compound 63, 1,3,5-Trimethyl-2-amide-N-(benzothiophen-5-yl)-4-(2-propargylamino-oxalyl)-pyrrole] are 6.30 to 7.30 and > 100 µM.
Taken in the same sequence, the figures for `C#CCNC(=O)C(=O)c1c(C)c(C(=O)Nc2ccc3c(ccn3C)c2)n(C)c1C` [Compound 64, 1,3,5-Trimethyl-2-amide-N-(1-methyl-1H-indol-5-yl)-4-(2-propargylamino-oxalyl)-pyrrole] were 5.30 to 6.30 and > 100 µM.
For `C#CCNC(=O)C(=O)c1c(C)c(C(=O)Nc2ccc3ccccc3c2)n(C)c1C` [Compound 66, 1,3,5-Trimethyl-2-amide-N-(naphthalen-2-yl)-4-(2-propargylamino-oxalyl)-pyrrole], in the series with hepatitis B virus (HBV), the pEC50 was 6.30 to 7.30. Further, in series [1], the CC50 at 6 days is > 100 µM.
Consider `C#CCNC(=O)C(=O)c1c(C)c(C(=O)Nc2ccc3nccnc3c2)n(C)c1C` [Compound 67, 1,3,5-Trimethyl-2-amide-N-(quinoxalin-6-yl)-4-(2-propargylamino-oxalyl)-pyrrole], for which, in the series with hepatitis B virus (HBV), the pEC50 is 5.30 to 6.30. The CC50 at 6 days in series [1] is > 100 µM.
Taken in the same sequence, the figures for `C#CCNC(=O)C(=O)c1c(C)c(C(=O)Nc2ccc3ncccc3c2)n(C)c1C` [Compound 68, 1,3,5-Trimethyl-2-amide-N-(quinolin-6-yl)-4-(2-propargylamino-oxalyl)-pyrrole] were 5.30 to 6.30 and > 100 µM.
In the case of `C#CCNC(=O)C(=O)c1c(C)c(C(=O)Nc2ccc3c(c2)CCO3)n(C)c1C` [Compound 69, 1,3,5-Trimethyl-2-amide-N-(2,3-dihydrobenzofuran-5-yl)-4-(2-propargylamino-oxalyl)-pyrrole], the pEC50 in the series with hepatitis B virus (HBV) is 6.30 to 7.30. For the same molecule, the CC50 at 6 days in series [1] is > 100 µM.
In the same order, the values of `C#CCNC(=O)C(=O)c1c(C)c(C(=O)Nc2ccc3scnc3c2)n(C)c1C` [Compound 70, 1,3,5-Trimethyl-2-amide-N-(benzothiazol-5-yl)-4-(2-propargylamino-oxalyl)-pyrrole] are 5.30 to 6.30 and > 100 µM.
`C#CCNC(=O)C(=O)c1c(C)c(C(=O)Nc2ccc3c(c2)ncn3C)n(C)c1C` [Compound 72, 1,3,5-Trimethyl-2-amide-N-(1-methyl-1H-benzimidazol-5-yl)-4-(2-propargylamino-oxalyl)-Pyrrole] had a pEC50 in the series on hepatitis B virus (HBV) of 5.30 to 6.30. The CC50 at 6 days in series [1] was > 100 µM.
On to `C#CCNC(=O)C(=O)c1c(C)c(C(=O)Nc2ccc3c(cnn3C)c2)n(C)c1C` [Compound 73, 1,3,5-trimethyl-2-amide-N-(1-methyl-1H-indazol-5-yl)-4-(2-propargylamino-oxalyl)-pyrrole], for which the negative logarithm of the EC50 (pEC50) in the series with hepatitis B virus (HBV) was 5.30 to 6.30. The CC50 at 6 days in series [1] was > 100 µM.
For the molecule `C#CCNC(=O)C(=O)c1c(C)c(C(=O)Nc2ccc3oncc3c2)n(C)c1C` [Compound 74, 1,3,5-Trimethyl-2-amide-N-(benzisoxazol-5-yl)-4-(2-propargylamino-oxalyl)-pyrrole], the pEC50 with hepatitis B virus (HBV) was 5.30 to 6.30. The CC50 at 6 days in series [1] is > 100 µM.
`Cc1c(C(=O)C(=O)NC2(c3c[nH]nn3)CC(F)(F)C2)c(C)n(C)c1C(=O)Nc1ccc2occc2c1` [Compound 77, 1,3,5-trimethyl-2-amide-N-(benzofuran-5-yl)-4-(2-(3,3-difluoro-1-(1H-1,2,3-Triazol-4-yl)cyclobutane-1-amino)-oxalyl)-pyrrole]: the pEC50 in the series on hepatitis B virus (HBV) was ≥ 7.30. For the same molecule, the CC50 at 6 days in series [1] was > 100 µM.
In the same order, the values of `Cc1c(C(=O)C(=O)NC(C)(C)c2c[nH]nn2)c(C)n(C)c1C(=O)Nc1ccc2occc2c1` [Compound 78, 1,3,5-trimethyl-2-amide-N-(benzofuran-5-yl)-4-(2-(2-(1H-1,2,3-triazole-4-yl)-2-propylamino)-oxalyl)-pyrrole] are ≥ 7.30 and > 100 µM.
Taken in the same sequence, the figures for `C#CC(C)(C)NC(=O)C(=O)c1c(C)c(C(=O)Nc2ccc(F)c(F)c2)n(S(C)(=O)=O)c1C` [Compound 81, 1-Methylsulfo-2-amide-N-(3,4-difluorophenyl)-3,5-dimethyl-4-(2-(1,1-dimethylpropynamine)-oxalyl)pyrrole] were 6.30 to 7.30 and > 100 µM.
As to `Cc1c(C(=O)C(=O)NC(C)(C)C)coc1C(=O)Nc1ccc(F)c(Cl)c1` [Compound 83, 2-Amide-N-(3-chloro-4-fluoro-phenyl)-3-methyl-4-(2-tert-butylamino-oxalyl)-furan], the pEC50 with hepatitis B virus (HBV) was < 4.30. Also, the CC50 at 6 days in series [1] was > 100 µM.
In the same order, the values of `Cc1c(C(=O)C(=O)NC(C)(C)C)csc1C(=O)Nc1ccc(F)c(Cl)c1` [Compound 85, 2-Amide-N-(3-chloro-4-fluoro-phenyl)-3-methyl-4-(2-tert-butylamino-oxalyl)-thiophene] are 5.30 to 6.30 and 96 µM.
